This assay in a line: Vasorelaxant effect in rabbit pulmonary artery assessed as inhibition of KCl-induced contraction at 100 uM. Type of assay: functional. The note with it: Oryctolagus cuniculus.

`N#Cc1c(-c2cccc([N+](=O)[O-])c2)cc(-c2cccc(Nc3ccc(=O)[nH]n3)c2)[nH]c1=O`: the inhibition (usually the percentage by which the read-out fell short of the control) at 100 µM came to 9.1%. To `CCOc1ccc2nc(C)cc(Nc3ccc(C4=NNC(=O)CC4)c(O)c3)c2c1` belongs 36.2%; to `COc1ccc2nc(C)cc(Nc3ccc(C4=NNC(=O)CC4)c(C)c3)c2c1`, 25%; to `COc1ccc2nc(C)cc(Nc3ccc(C4=NNC(=O)CC4C)cc3)c2c1` (stereo unspecified), 21.5%.

As to `Cc1ccc2nc(C)cc(Nc3ccc(C4=NNC(=O)CC4)c(O)c3)c2c1`, the inhibition at 100 µM was 18.5%.

`CCOC(=O)c1c[nH]c2ccc(C3=NNC(=O)CC3C)cc2c1=O` (stereo unspecified): the inhibition at 100 µM is 14.5%. On to `CCOC(=O)c1c[nH]c2ccc(C3=NNC(=O)CC3)cc2c1=O`, for which the inhibition at 100 µM came out at 14.5%. For the compound `COc1ccc2nc(C)cc(Nc3ccc(C4=NNC(=O)CC4)c(O)c3)c2c1`, the inhibition at 100 µM is 34.3%. To `N#Cc1c(-c2cccnc2)cc(-c2cccc(Nc3ccc(=O)[nH]n3)c2)[nH]c1=O` belongs 8.17%. For `Cc1ccc2nc(C)cc(Nc3ccc(C4=NNC(=O)CC4C)cc3)c2c1` (stereo unspecified) the value was 22.7%; for `Cc1[nH]c(=O)c(C#N)cc1-c1ccncc1` [MILRINONE], 60.5%.
